{"source": "patent US20260285850A1", "about": "“SUBSTITUTED OXAZOLIDINONES AND IMIDAZOLINONES AS HERBICIDES” (FMC CORPORATION, priority 2023, published 2026)", "format_in_all_cases": "in vivo", "key": {"[1]": {"system": "barnyardgrass (Echinochloa crus-galli)", "assay": "Test A postemergence application, visual injury rating 0-100", "settings": "Postemergence", "procedure,_shortened": "(§1)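 Compound in a non-phytotoxic, surfactant-containing solvent is applied either as a directed soil spray before seedlings emerge or onto emerged plants 2-10 cm tall; pots hold a loam-sand blend. Plants grow 10 days under greenhouse conditions and are rated by eye against untreated controls (0 no effect, 100 complete control).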"}, "[2]": {"system": "ragweed (common ragweed, Ambrosia artemisiifolia)", "assay": "Test A postemergence application, visual injury rating 0-100", "settings": "Postemergence", "procedure,_shortened": "as §1"}, "[3]": {"system": "blackgrass (Alopecurus myosuroides)", "assay": "Test A postemergence application, visual injury rating 0-100", "settings": "Postemergence", "procedure,_shortened": "as §1"}, "[4]": {"system": "green foxtail (Setaria viridis)", "assay": "Test A postemergence application, visual injury rating 0-100", "settings": "Postemergence", "procedure,_shortened": "as §1"}, "[5]": {"system": "galium (catchweed bedstraw, Galium aparine)", "assay": "Test A postemergence application, visual injury rating 0-100", "settings": "Postemergence", "procedure,_shortened": "as §1"}, "[6]": {"system": "wheat (Triticum aestivum)", "assay": "Test A postemergence application, visual injury rating 0-100", "settings": "Postemergence", "procedure,_shortened": "as §1"}, "kochia (Bassia scoparia) [7]": {"system": "kochia (Bassia scoparia)", "assay": "Test A postemergence application, visual injury rating 0-100", "settings": "Postemergence", "procedure,_shortened": "as §1"}, "[8]": {"system": "horseweed (Erigeron canadensis)", "assay": "Test A postemergence application, visual injury rating 0-100", "settings": "Postemergence", "procedure,_shortened": "as §1"}, "[9]": {"system": "palmer (palmer amaranth, palmer pigweed, Amaranthus palmeri)", "assay": "Test A postemergence application, visual injury rating 0-100", "settings": "Postemergence", "procedure,_shortened": "as §1"}, "[10]": {"system": "ryegrass, Italian (italian ryegrass, Lolium multiflorum)", "assay": "Test A postemergence application, visual injury rating 0-100", "settings": "Postemergence", "procedure,_shortened": "as §1"}, "corn (Zea mays) [11]": {"system": "corn (Zea mays)", "assay": "Test A postemergence application, visual injury rating 0-100", "settings": "Postemergence", "procedure,_shortened": "as §1"}, "soybean (Glycine max) [12]": {"system": "soybean (Glycine max)", "assay": "Test A postemergence application, visual injury rating 0-100", "settings": "Postemergence", "procedure,_shortened": "as §1"}, "[13]": {"system": "oat, wild (wild oat, Avena fatua)", "assay": "Test A postemergence application, visual injury rating 0-100", "settings": "Postemergence", "procedure,_shortened": "as §1"}, "[14]": {"system": "barnyardgrass (Echinochloa crus-galli)", "assay": "Test A preemergence soil spray, visual injury rating 0-100", "settings": "10 days, 0 = no effect, 100 = complete control", "procedure,_shortened": "as §1"}, "[15]": {"system": "ragweed (common ragweed, Ambrosia artemisiifolia)", "assay": "Test A preemergence soil spray, visual injury rating 0-100", "settings": "10 days, 0 = no effect, 100 = complete control", "procedure,_shortened": "as §1"}, "[16]": {"system": "blackgrass (Alopecurus myosuroides)", "assay": "Test A preemergence soil spray, visual injury rating 0-100", "settings": "10 days, 0 = no effect, 100 = complete control", "procedure,_shortened": "as §1"}, "[17]": {"system": "green foxtail (Setaria viridis)", "assay": "Test A preemergence soil spray, visual injury rating 0-100", "settings": "10 days, 0 = no effect, 100 = complete control", "procedure,_shortened": "as §1"}, "[18]": {"system": "wheat (Triticum aestivum)", "assay": "Test A preemergence soil spray, visual injury rating 0-100", "settings": "10 days, 0 = no effect, 100 = complete control", "procedure,_shortened": "as §1"}, "kochia (Bassia scoparia) [19]": {"system": "kochia (Bassia scoparia)", "assay": "Test A preemergence soil spray, visual injury rating 0-100", "settings": "10 days, 0 = no effect, 100 = complete control", "procedure,_shortened": "as §1"}, "[20]": {"system": "palmer (palmer amaranth, palmer pigweed, Amaranthus palmeri)", "assay": "Test A preemergence soil spray, visual injury rating 0-100", "settings": "10 days, 0 = no effect, 100 = complete control", "procedure,_shortened": "as §1"}, "[21]": {"system": "ryegrass, Italian (italian ryegrass, Lolium multiflorum)", "assay": "Test A preemergence soil spray, visual injury rating 0-100", "settings": "10 days, 0 = no effect, 100 = complete control", "procedure,_shortened": "as §1"}, "corn (Zea mays) [22]": {"system": "corn (Zea mays)", "assay": "Test A preemergence soil spray, visual injury rating 0-100", "settings": "10 days, 0 = no effect, 100 = complete control", "procedure,_shortened": "as §1"}, "soybean (Glycine max) [23]": {"system": "soybean (Glycine max)", "assay": "Test A preemergence soil spray, visual injury rating 0-100", "settings": "10 days, 0 = no effect, 100 = complete control", "procedure,_shortened": "as §1"}, "[24]": {"system": "oat, wild (wild oat, Avena fatua)", "assay": "Test A preemergence soil spray, visual injury rating 0-100", "settings": "10 days, 0 = no effect, 100 = complete control", "procedure,_shortened": "as §1"}, "rice (Oryza sativa)": {"system": "rice (Oryza sativa)", "assay": "Test B flooded paddy test, visual plant response rating 0-100", "settings": "250 g ai/ha, Flood, applied to paddy water, evaluated after 13 days", "procedure,_shortened": "(§2)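 Treatment occurs at the 2-leaf stage by adding compound to floodwater standing 3 cm above the soil, a level kept for the whole test. Plants stay in the greenhouse 13 days before visual comparison with controls.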"}, "[25]": {"system": "ducksalad (Heteranthera limosa)", "assay": "Test B flooded paddy test, visual plant response rating 0-100", "settings": "250 g ai/ha, Flood, applied to paddy water, evaluated after 13 days", "procedure,_shortened": "as §2"}, "[26]": {"system": "barnyardgrass (Echinochloa crusgalli)", "assay": "Test B flooded paddy test, visual plant response rating 0-100", "settings": "250 g ai/ha, Flood, applied to paddy water, evaluated after 13 days", "procedure,_shortened": "as §2"}, "[27]": {"system": "sedge, umbrella (small-flower umbrella sedge, Cyperus difformis)", "assay": "Test B flooded paddy test, visual plant response rating 0-100", "settings": "250 g ai/ha, Flood, applied to paddy water, evaluated after 13 days", "procedure,_shortened": "as §2"}, "[28]": {"settings": "31 g ai/ha, greenhouse 10 days, 0 no effect, 100 complete control"}, "[29]": {"settings": "125 g ai/ha, 10 days, 0 is no effect, 100 is complete control"}}, "data": [{"smiles": "CC(C)COC(=O)C1C=CC(NC(=O)C2(C)CN(c3cc(Cl)cc(Cl)c3)C(=O)O2)C1", "note": "(stereo not shown) [Compound 66]", "values": [{"measurement": "Barnyardgrass plant response rating (0 to 100 scale)", "setting": "[1]; [28]", "result": 100}, {"measurement": "Barnyardgrass plant response rating (0 to 100 scale)", "setting": "[1]; [29]", "result": 100}, {"measurement": "Ragweed plant response rating (0 to 100 scale)", "setting": "[2]; [28]", "result": 70}, {"measurement": "Ragweed plant response rating (0 to 100 scale)", "setting": "[2]; [29]", "result": 80}, {"measurement": "Blackgrass plant response rating (0 to 100 scale)", "setting": "[3]; [28]", "result": 90}, {"measurement": "Blackgrass plant response rating (0 to 100 scale)", "setting": "[3]; [29]", "result": 90}, {"measurement": "Foxtail, Green plant response rating (0 to 100 scale)", "setting": "[4]; [28]", "result": 70}, {"measurement": "Foxtail, Green plant response rating (0 to 100 scale)", "setting": "[4]; [29]", "result": 90}, {"measurement": "Galium plant response rating (0 to 100 scale)", "setting": "[5]; [28]", "result": 70}, {"measurement": "Galium plant response rating (0 to 100 scale)", "setting": "[5]; [29]", "result": 80}, {"measurement": "Wheat plant response rating (0 to 100 scale)", "setting": "[6]; [28]", "result": 90}, {"measurement": "Wheat plant response rating (0 to 100 scale)", "setting": "[6]; [29]", "result": 90}, {"measurement": "Kochia plant response rating (0 to 100 scale)", "setting": "kochia (Bassia scoparia) [7]; [28]", "result": 70}, {"measurement": "Kochia plant response rating (0 to 100 scale)", "setting": "kochia (Bassia scoparia) [7]; [29]", "result": 80}, {"measurement": "Horseweed plant response rating (0 to 100 scale)", "setting": "[8]; [28]", "result": 40}, {"measurement": "Horseweed plant response rating (0 to 100 scale)", "setting": "[8]; [29]", "result": 70}, {"measurement": "Amaranth, Palmer / Pigweed, Palmer plant response rating (0 to 100 scale)", "setting": "[9]; [28]", "result": 90}, {"measurement": "Amaranth, Palmer / Pigweed, Palmer plant response rating (0 to 100 scale)", "setting": "[9]; [29]", "result": 90}, {"measurement": "Ryegrass, Italian plant response rating (0 to 100 scale)", "setting": "[10]; [28]", "result": 70}, {"measurement": "Ryegrass, Italian plant response rating (0 to 100 scale)", "setting": "[10]; [29]", "result": 100}, {"measurement": "Corn plant response rating (0 to 100 scale)", "setting": "corn (Zea mays) [11]; [28]", "result": 90}, {"measurement": "Corn plant response rating (0 to 100 scale)", "setting": "corn (Zea mays) [11]; [29]", "result": 100}, {"measurement": "Soybean plant response rating (0 to 100 scale)", "setting": "soybean (Glycine max) [12]; [28]", "result": 80}, {"measurement": "Soybean plant response rating (0 to 100 scale)", "setting": "soybean (Glycine max) [12]; [29]", "result": 80}, {"measurement": "Oat, Wild plant response rating (0 to 100 scale)", "setting": "[13]; [28]", "result": 90}, {"measurement": "Oat, Wild plant response rating (0 to 100 scale)", "setting": "[13]; [29]", "result": 90}, {"measurement": "Barnyardgrass plant response rating (0-100)", "setting": "[14]; 31 g ai/ha", "result": 50}, {"measurement": "Barnyardgrass plant response rating (0 to 100 scale)", "setting": "[14]; 125 g ai/ha", "result": 90}, {"measurement": "Ragweed plant response rating (0-100)", "setting": "[15]; 31 g ai/ha", "result": 0}, {"measurement": "Ragweed plant response rating (0 to 100 scale)", "setting": "[15]; 125 g ai/ha", "result": 70}, {"measurement": "Blackgrass plant response rating (0-100)", "setting": "[16]; 31 g ai/ha", "result": 30}, {"measurement": "Blackgrass plant response rating (0 to 100 scale)", "setting": "[16]; 125 g ai/ha", "result": 80}, {"measurement": "Foxtail, Green plant response rating (0-100)", "setting": "[17]; 31 g ai/ha", "result": 20}, {"measurement": "Foxtail, Green plant response rating (0 to 100 scale)", "setting": "[17]; 125 g ai/ha", "result": 100}, {"measurement": "Wheat plant response rating (0-100)", "setting": "[18]; 31 g ai/ha", "result": 10}, {"measurement": "Wheat plant response rating (0 to 100 scale)", "setting": "[18]; 125 g ai/ha", "result": 70}, {"measurement": "Kochia plant response rating (0-100)", "setting": "kochia (Bassia scoparia) [19]; 31 g ai/ha", "result": 0}, {"measurement": "Kochia plant response rating (0 to 100 scale)", "setting": "kochia (Bassia scoparia) [19]; 125 g ai/ha", "result": 30}, {"measurement": "Amaranth, Palmer plant response rating (0-100)", "setting": "[20]; 31 g ai/ha", "result": 90}, {"measurement": "Amaranth, Palmer plant response rating (0 to 100 scale)", "setting": "[20]; 125 g ai/ha", "result": 100}, {"measurement": "Ryegrass, Italian plant response rating (0-100)", "setting": "[21]; 31 g ai/ha", "result": 50}, {"measurement": "Ryegrass, Italian plant response rating (0 to 100 scale)", "setting": "[21]; 125 g ai/ha", "result": 90}, {"measurement": "Corn plant response rating (0-100)", "setting": "corn (Zea mays) [22]; 31 g ai/ha", "result": 0}, {"measurement": "Corn plant response rating (0 to 100 scale)", "setting": "corn (Zea mays) [22]; 125 g ai/ha", "result": 60}, {"measurement": "Soybean plant response rating (0-100)", "setting": "soybean (Glycine max) [23]; 31 g ai/ha", "result": 0}, {"measurement": "Soybean plant response rating (0 to 100 scale)", "setting": "soybean (Glycine max) [23]; 125 g ai/ha", "result": 0}, {"measurement": "Oat, Wild plant response rating (0-100)", "setting": "[24]; 31 g ai/ha", "result": 0}, {"measurement": "Oat, Wild plant response rating (0 to 100 scale)", "setting": "[24]; 125 g ai/ha", "result": 90}, {"measurement": "Plant response rating, Rice (0 to 100 scale, 0 is no effect and 100 is complete control)", "setting": "rice (Oryza sativa)", "result": 15}, {"measurement": "Plant response rating, Ducksalad (0 to 100 scale, 0 is no effect and 100 is complete control)", "setting": "[25]", "result": 95}, {"measurement": "Plant response rating, Barnyardgrass (0 to 100 scale, 0 is no effect and 100 is complete control)", "setting": "[26]", "result": 75}, {"measurement": "Plant response rating, Sedge, Umbrella (0 to 100 scale, 0 is no effect and 100 is complete control)", "setting": "[27]", "result": 100}]}]}
